Reference: patent US20240270762A1, “PENICILLIN-BINDING PROTEIN INHIBITORS” (priority 2021, published 2024)
pEC50: −log10 of the molar value.

Molecular target: T1, PBP3 from Escherichia coli (K-12) (Escherichia coli, UniProt P0AD68)
T1 construct: made in house
Assay: Bocillin-FL fluorescence polarization competition binding, E. coli PBP3
Procedure, shortened: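 Purified PBPs pre-incubated with inhibitor (E. coli PBP3 1.5 μM, 30 min; P. aeruginosa PBP3 0.75 μM, A. baumannii PBP1a 1 μM and PBP3 0.2 μM, 15 min), then Bocillin-FL 0.1 μM (0.05 μM for PBP1a) added; FP read up to 60 min. EC50 = concentration halving bound Bocillin-FL.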

T1 sequence (P0AD68 1-577): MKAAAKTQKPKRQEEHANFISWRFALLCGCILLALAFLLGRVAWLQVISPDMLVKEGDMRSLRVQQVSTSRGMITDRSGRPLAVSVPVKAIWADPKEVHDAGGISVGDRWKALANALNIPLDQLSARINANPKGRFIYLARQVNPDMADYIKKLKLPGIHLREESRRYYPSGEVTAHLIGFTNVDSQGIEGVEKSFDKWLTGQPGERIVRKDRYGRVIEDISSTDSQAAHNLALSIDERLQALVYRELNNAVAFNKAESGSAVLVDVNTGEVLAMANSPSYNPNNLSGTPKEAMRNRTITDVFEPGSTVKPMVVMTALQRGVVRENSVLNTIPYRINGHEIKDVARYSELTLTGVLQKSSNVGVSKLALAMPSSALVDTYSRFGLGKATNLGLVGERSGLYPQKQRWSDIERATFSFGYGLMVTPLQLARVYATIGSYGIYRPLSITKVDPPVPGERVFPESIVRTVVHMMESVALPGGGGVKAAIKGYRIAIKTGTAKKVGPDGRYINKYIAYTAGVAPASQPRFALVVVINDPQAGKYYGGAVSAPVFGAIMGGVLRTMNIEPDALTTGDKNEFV

| SMILES | pEC50 |
| --- | --- |
| CS(=O)(=O)N1CCC[C@H]1C(=O)N[C@H](C(=O)N[C@H]1Cc2cccc(C(=O)O)c2OB1O)c1ccc(P(=O)(O)O)cc1 [Example 43, (R)-2-hydroxy-3-((S)-2-((S)-1-(methylsulfonyl)pyrrolidine-2-carboxamido)-2-(4-phosphonophenyl)acetamido)-3,4-dihydro-2H-benzo[e][1,2]oxaborinine-8-carboxylic acid] | 3.60 to 4.30 |
| CS(=O)(=O)N1CCC[C@H]1C(=O)N[C@@H](C(=O)N[C@H]1Cc2cccc(C(=O)O)c2OB1O)c1ccc(P(=O)(O)O)cc1 [Example 44, (R)-2-hydroxy-3-((R)-2-((S)-1-(methylsulfonyl)pyrrolidine-2-carboxamido)-2-(4-phosphonophenyl)acetamido)-3,4-dihydro-2H-benzo[e][1,2]oxaborinine-8-carboxylic acid] | 4.30 to 5.00 |
| O=C(O)c1cccc2c1OB(O)[C@@H](NC(=O)C(NC(=O)[C@H]1CCCN1)c1ccc(P(=O)(O)O)cc1)C2 (stereo partly drawn) [Example 52, (3R)-2-hydroxy-3-(2-(4-phosphonophenyl)-2-((R)-pyrrolidine-2-carboxamido)acetamido)-3,4-dihydro-2H-benzo[e][1,2]oxaborinine-8-carboxylic acid] | < 3.60 |
| O=C1CC[C@H](C(=O)NC(C(=O)N[C@H]2Cc3cccc(C(=O)O)c3OB2O)c2ccc(P(=O)(O)O)cc2)N1 (stereo partly drawn) [Example 53, (3R)-2-hydroxy-3-(2-((R)-5-oxopyrrolidine-2-carboxamido)-2-(4-phosphonophenyl)acetamido)-3,4-dihydro-2H-benzo[e][1,2]oxaborinine-8-carboxylic acid] | 3.60 to 4.30 |
| O=C(O)c1cccc2c1OB(O)[C@@H](NC(=O)C(NC(=O)N1CCCNC1=O)c1ccc(P(=O)(O)O)cc1)C2 (stereo partly drawn) [Example 56, (3R)-2-hydroxy-3-(2-(2-oxohexahydropyrimidine-1-carboxamido)-2-(4-phosphonophenyl)acetamido)-3,4-dihydro-2H-benzo[e][1,2]oxaborinine-8-carboxylic acid] | 4.30 to 5.00 |
| O=C(O)c1cccc2c1OB(O)[C@@H](NC(=O)C(NC(=O)N1CCCC1=O)c1ccc(P(=O)(O)O)cc1)C2 (stereo partly drawn) [Example 57, (3R)-2-hydroxy-3-(2-(2-oxopyrrolidine-1-carboxamido)-2-(4-phosphonophenyl)acetamido)-3,4-dihydro-2H-benzo[e][1,2]oxaborinine-8-carboxylic acid] | 4.30 to 5.00 |
| NS(=O)(=O)NC(C(=O)N[C@H]1Cc2cccc(C(=O)O)c2OB1O)c1ccc(P(=O)(O)O)cc1 (stereo partly drawn) [Example 58, (3R)-2-hydroxy-3-(2-(4-phosphonophenyl)-2-(sulfamoylamino)acetamido)-3,4-dihydro-2H-benzo[e][1,2]oxaborinine-8-carboxylic acid] | < 3.60 |
| CS(=O)(=O)NC(C(=O)N[C@H]1Cc2cccc(C(=O)O)c2OB1O)c1ccc(P(=O)(O)O)cc1 (stereo partly drawn) [Example 59, (3R)-2-hydroxy-3-(2-(methylsulfonamido)-2-(4-phosphonophenyl)acetamido)-3,4-dihydro-2H-benzo[e][1,2]oxaborinine-8-carboxylic acid] | < 3.60 |
| CC(C)S(=O)(=O)NC(C(=O)N[C@H]1Cc2cccc(C(=O)O)c2OB1O)c1ccc(P(=O)(O)O)cc1 (stereo partly drawn) [Example 60, (3R)-2-hydroxy-3-(2-((1-methylethyl)sulfonamido)-2-(4-phosphonophenyl)acetamido)-3,4-dihydro-2H-benzo[e][1,2]oxaborinine-8-carboxylic acid] | < 3.60 |
| O=C(O)c1cccc2c1OB(O)[C@@H](NC(=O)C(NS(=O)(=O)C1CC1)c1ccc(P(=O)(O)O)cc1)C2 (stereo partly drawn) [Example 61, (3R)-3-(2-(cyclopropanesulfonamido)-2-(4-phosphonophenyl)acetamido)-2-hydroxy-3,4-dihydro-2H-benzo[e][1,2]oxaborinine-8-carboxylic acid] | 3.60 to 4.30 |
| O=C1CC[C@@H](C(=O)NC(C(=O)N[C@H]2Cc3cccc(C(=O)O)c3OB2O)c2ccc(P(=O)(O)O)cc2)N1 (stereo partly drawn) [Example 64, (3R)-2-hydroxy-3-(2-((S)-5-oxopyrrolidine-2-carboxamido)-2-(4-phosphonophenyl)acetamido)-3,4-dihydro-2H-benzo[e][1,2]oxaborinine-8-carboxylic acid] | 3.60 to 4.30 |
| CC(=O)N1CCC[C@H]1C(=O)NC(C(=O)N[C@H]1Cc2cccc(C(=O)O)c2OB1O)c1ccc(P(=O)(O)O)cc1 (stereo partly drawn) [Example 65, (3R)-3-(2-((S)-1-acetylpyrrolidine-2-carboxamido)-2-(4-phosphonophenyl)acetamido)-2-hydroxy-3,4-dihydro-2H-benzo[e][1,2]oxaborinine-8-carboxylic acid] | < 3.60 |
| CN1CCC[C@H]1C(=O)NC(C(=O)N[C@H]1Cc2cccc(C(=O)O)c2OB1O)c1ccc(P(=O)(O)O)cc1 (stereo partly drawn) [Example 66] | 3.60 to 4.30 |
| O=C(O)c1cccc2c1OB(O)[C@@H](NC(=O)C(NC(=O)C(F)(F)F)c1ccc(P(=O)(O)O)cc1)C2 (stereo partly drawn) [Example 172, (3R)-2-hydroxy-3-(2-(4-phosphonophenyl)-2-(2,2,2-trifluoroacetamido)acetamido)-3,4-dihydro-2H-benzo[e][1,2]oxaborinine-8-carboxylic acid] | < 3.60 |
| O=C(O)c1cccc2c1OB(O)[C@@H](NC(=O)[C@H](NC(=O)[C@@H]1CCCN1)c1ccc(P(=O)(O)O)cc1)C2 [Example 173, (R)-2-hydroxy-3-((R)-2-(4-phosphonophenyl)-2-((S)-pyrrolidine-2-carboxamido)acetamido)-3,4-dihydro-2H-benzo[e][1,2]oxaborinine-8-carboxylic acid] | 3.60 to 4.30 |
| O=C(O)c1cccc2c1OB(O)[C@@H](NC(=O)C(NC(=O)c1ccc[nH]c1=O)c1ccc(P(=O)(O)O)cc1)C2 (stereo partly drawn) [Example 174, (3R)-2-hydroxy-3-(2-(2-oxo-1,2-dihydropyridine-3-carboxamido)-2-(4-phosphonophenyl)acetamido)-3,4-dihydro-2H-benzo[e][1,2]oxaborinine-8-carboxylic acid] | 3.60 to 4.30 |
| O=C(O)c1cccc2c1OB(O)[C@@H](NC(=O)[C@H](NC(=O)c1c[nH]ccc1=O)c1ccc(P(=O)(O)O)cc1)C2 [Example 175, (R)-2-hydroxy-3-((R)-2-(4-oxo-1,4-dihydropyridine-3-carboxamido)-2-(4-phosphonophenyl)acetamido)-3,4-dihydro-2H-benzo[e][1,2]oxaborinine-8-carboxylic acid] | > 5.00 |
| O=C(O)c1cccc2c1OB(O)[C@@H](NC(=O)C(NC(=O)c1cnc[nH]c1=O)c1ccc(P(=O)(O)O)cc1)C2 (stereo partly drawn) [Example 176, (3R)-2-hydroxy-3-(2-(6-oxo-1,6-dihydropyrimidine-5-carboxamido)-2-(4-phosphonophenyl)acetamido)-3,4-dihydro-2H-benzo[e][1,2]oxaborinine-8-carboxylic acid] | 3.60 to 4.30 |
| N#Cc1ccnc(C(=O)NC(C(=O)N[C@H]2Cc3cccc(C(=O)O)c3OB2O)c2ccc(P(=O)(O)O)cc2)c1 (stereo partly drawn) [Example 179, (3R)-3-(2-(4-cyanopicolinamido)-2-(4-phosphonophenyl)acetamido)-2-hydroxy-3,4-dihydro-2H-benzo[e][1,2]oxaborinine-8-carboxylic acid] | 3.60 to 4.30 |
| N#Cc1cccc(C(=O)N[C@@H](C(=O)N[C@H]2Cc3cccc(C(=O)O)c3OB2O)c2ccc(P(=O)(O)O)cc2)n1 [Example 180, (R)-3-((R)-2-(6-cyanopicolinamido)-2-(4-phosphonophenyl)acetamido)-2-hydroxy-3,4-dihydro-2H-benzo[e][1,2]oxaborinine-8-carboxylic acid] | > 5.00 |
| O=C(O)c1cccc2c1OB(O)[C@@H](NC(=O)C(NC(=O)c1ncccc1Cl)c1ccc(P(=O)(O)O)cc1)C2 (stereo partly drawn) [Example 183, (3R)-3-(2-(3-chloropicolinamido)-2-(4-phosphonophenyl)acetamido)-2-hydroxy-3,4-dihydro-2H-benzo[e][1,2]oxaborinine-8-carboxylic acid] | 3.60 to 4.30 |
| O=C(NC(C(=O)N[C@H]1Cc2cccc(C(=O)O)c2OB1O)c1ccc(P(=O)(O)O)cc1)c1ccc(Cl)cn1 (stereo partly drawn) [Example 184, (3R)-3-(2-(5-chloropicolinamido)-2-(4-phosphonophenyl)acetamido)-2-hydroxy-3,4-dihydro-2H-benzo[e][1,2]oxaborinine-8-carboxylic acid] | > 5.00 |
| NC(=O)c1ccc(C(=O)NC(C(=O)N[C@H]2Cc3cccc(C(=O)O)c3OB2O)c2ccc(P(=O)(O)O)cc2)nc1 (stereo partly drawn) [Example 188, (3R)-3-(2-(5-carbamoylpicolinamido)-2-(4-phosphonophenyl)acetamido)-2-hydroxy-3,4-dihydro-2H-benzo[e][1,2]oxaborinine-8-carboxylic acid] | 4.30 to 5.00 |
| CCN1CCN(C(=O)NC(C(=O)N[C@H]2Cc3cccc(C(=O)O)c3OB2O)c2ccc(S(=O)(=O)O)cc2)C(=O)C1=O (stereo partly drawn) [Example 189, (3R)-3-(2-(4-ethyl-2,3-dioxopiperazine-1-carboxamido)-2-(4-sulfophenyl)acetamido)-2-hydroxy-3,4-dihydro-2H-benzo[e][1,2]oxaborinine-8-carboxylic acid] | 4.30 to 5.00 |
